Reference: patent publication US20140309295A1, “ANTIEPILEPTIC, HYPOCHOLESTEROLEMIC AND NEUROPROTECTIVE COMPOUND” (NEURON BIOPHARMA, S.A., priority 2009, published 2014)
Peptide text beside a SMILES is read from it. * marks the point of attachment. Cbz = O=C(OCc1ccccc1)*; CH2F = FC*

Key:
[1] = tested on: human neuroblastoma SK-N-MC cells; experiment: Inhibition of camptothecin-induced apoptosis by flow cytometry (sub-G1); format: cell-based; conditions: 50 μM Z-VAD-fmk; 50 μM camptothecin
Description: The assay was performed on human neuroblastoma SK-N-MC cells in culture from the American Type Culture Collection (ATCC), in all cases strict rules of sterility were followed and the manipulation was performed in class II biological safety cabinets following European standard EN 12469. The cells were maintained in the following culture medium: Minimum Essential Medium Eagle (MEM) supplemented with 1 mM sodium pyruvate, 2 mM L-glutamine, 0.1 mM non-essential amino acids, 0.05 mg/ml gentamicin and 10% fetal bovine serum.
The inhibition caused by compound NST0037 against apoptosis (programmed cell death) caused by treatment with camptothecin which inhibits the enzyme Topoisomerase I, which prevents DNA duplication and triggers apoptotic cell death, was analyzed. These cells, not exceeding 15 passages, were seeded on 6-well plates treated for adherent cells with a cell concentration of 8×10^5 cells/well and 7×10^5 cells/well for the assay with pretreatment; 2 wells of the plate were seeded for each condition of the assay.
After 24 hours of cell incubation at 37° C. and 5% CO2, the cell treatments were performed with 2 ml of total volume for the following conditions: • Control: culture medium (medium) • Camptothecin: medium plus camptothecin 50 μM. • Camptothecin plus Z-VAD-fmk: medium plus 50 μM camptothecin plus 50 μM Z-VAD-fmk, as positive inhibition control. • Camptothecin plus NST0037: medium plus 50 μM camptothecin plus NST0037 at 10, 40 or 100 μM.
In the assay with pretreatment, the cells were previously treated with 40 μM of NST0037, 100 μM of mevalonate or both together for 24 hours and then they were treated with 50 μM camptothecin, the rest of the procedure was similar to the assay without pretreatment.
The cells were incubated (at 37° C. and 5% CO2) with these treatments for 6 hours, after which time they were collected along with their culture medium and centrifuged at 300×g for 5 minutes. The medium was removed, a washing was performed with PBS and the cells were fixed for 2 minutes with 500 μl of 70% ethanol at −20° C. Once fixed, they were centrifuged at 400×g for 5 minutes, washed with PBS and 0.05 mg/ml propidium iodide, diluted in cycling buffer (0.1% sodium citrate, 0.3% Nonidet P-40 and 0.02 mg/ml RNase) were added and they were incubated for 1 hour at 37° C. After this time they were analyzed by flow cytometry, comparing the fluorescence of propidium iodide against the amount of DNA. The percentage of apoptosis was measured on the sub-G1 region of each of the conditions.

[2] = tested on: caspase 3/7; experiment: Inhibition of camptothecin-induced activation of caspase 3/7 in SK-N-MC cells; format: cell-based, human; conditions: 50 μM Z-VAD-fmk; 50 μM CPT
Description: The assay was performed on human neuroblastoma SK-N-MC cells in culture from the American Type Culture Collection (ATCC), in all cases strict rules of sterility were followed and the manipulation was performed in class II biological safety cabinets following European standard EN 12469. The cells were maintained in the following culture medium: Minimum Essential Medium Eagle (MEM) supplemented with 1 mM sodium pyruvate, 2 mM L-glutamine, 0.1 mM non-essential amino acids, 0.05 mg/ml gentamicin and 10% fetal bovine serum. The induction of apoptosis on the cells in culture was performed by means of incubation with camptothecin (CPT), which triggers cell apoptosis activation. The apoptosis was determined by means of the measurement of the activation of effector caspases, caspase 3 or caspase 7, for which a kit for the fluorometric detection of active caspase 3/7 (Apo-ONE® Homogeneous Caspase-3/7, Promega) was used. The active caspase 3 or 7 of the cells cause the rupture of a substrate, which leads to fluorescence emission, which is read by means of a fluorometer. The effect of the pretreatment of compound NST0037 at 10 and 40 μM on the activation of caspase 3/7 caused by 50 μM of camptothecin (CPT) in the SK-N-MC cells was thus analyzed. These cells, not exceeding 15 passages, were seeded on 96-well plates treated for adherent cells with a cell concentration of 5×10^4 cells/well, 3 wells of the plate were seeded for each condition of the assay. After 24 hours of cell incubation at 37° C. and 5% CO2, the pretreatment with NST0037 at 10 and 40 μM was performed. […] On the following day, fluorescence was measured (499/521 nm, […]).

[3] = tested on: zebrafish embryo; experiment: Biosafety in zebrafish embryo (OECD C15, semi-static, 9 days); format: in vivo, Danio rerio
Description: The fertilized eggs were obtained by natural mating of the zebrafish (Danio rerio, AB strain). A total of 8-10 pairs were used for each cross and a total of 200-250 eggs were generated on average per pair.
To assure exposure in the earliest stages of development, the eggs were quickly transferred (a minimum of 50 per condition) to another Petri dish with solutions of the compounds to be tested. […] Each experiment was performed in triplicate.
The studies were conducted in a total of 9 days post-fertilization, in which the treatment was renewed every day, thus conducting a semi-static assay.
The results at the end of the experiment allowed collecting the percentage of healthy larvae which reach the end of the experiment, defined as the number of live larvae and without symptoms of external physiopathological anomalies (morphological and/or behavioral), this being a parameter determining the biosafety of a substance under study and is complementary to the survival rates and to the LD50.
The anomalies recorded in the study are described below: • Intracranial thrombosis: a clot inside the blood vessel, in this case of any cerebral vessel. • Cardiac thrombosis: occurs in a cardiac vessel. • Cardiac edema (or hydrops): accumulation of fluid in the intercellular tissue space and also in the cavities of the organism. In the case of the heart, it causes the accumulation of fluid in the pericardial sac. • Malformation: a noticeable difference in the shape of the body or part of the body, or organ of the body (internal or external) compared with the average shape of the part in question.
The cardiac rhythm of the zebrafish embryos-larva was determined by means of visual analysis in stereomicroscopy, determining the heartbeat with the aid of a manual counter for a period of one minute.

[4] = tested on: zebrafish larvae; experiment: Acute toxicity assay in zebrafish larvae (24 hours); format: in vivo, Danio rerio; conditions: for Mortality (dead larvae/total): 1 day
Description: To evaluate the biosafety of compound NST0037, its toxicological effects on the zebrafish larvae model were analyzed by means of determining the safety parameters of the OECD C15 protocol.
The fertilized eggs were obtained by natural mating of the zebrafish (Danio rerio, AB strain). A total of 8-10 pairs were used for each cross and a total of 200-250 eggs were generated on average per pair. The eggs were collected immediately after spawning and were washed with dilution water (CaCl2.2H2O2 0.29 g/L, MgSO4.7H2O2 0.12 g/L, NaHCO3 0.065 g/L, KCl 0.006 g/L), the pH being adjusted to 7.8±0.2, in accordance with EC Regulation 440/2008, method C.1, and were deposited in a Petri dish.
The embryos were developed normally until 96 hours post-fertilization in their growth medium. […] […]. Each experiment was performed in triplicate.
The studies were conducted for 24 hours of treatment, thus performing an acute toxicity assay. […].
After the time of exposure of the substances under study, the record of the mortality of the larvae was determined. […].
[…]. The percentage of healthy larvae was defined as the number of live larvae without symptoms of external physiopathological anomalies (morphological and/or behavioral), the latter being a parameter determining the biosafety of a substance under study and is complementary to the survival rates and to LD50. […].
The anomalies recorded in the study are described below: • Thrombosis in the yolk sac: it is a clot inside a blood vessel, in this case of any vessel irrigating the yolk. • Cardiac thrombosis: occurs in a cardiac vessel. • Cardiac edema (or hydrops): accumulation of fluid in the intercellular tissue space and also in the cavities of the organism. In the case of the heart, it causes the accumulation of fluid in the pericardial sac.

[5] = tested on: adult zebrafish; experiment: Lethality by constant exposure in water (4 days) in adult zebrafish (OECD 203); format: in vivo; conditions: for histopathology: ovary / Mortality (dead animals/total): 4 days
Description: The object of this assay is to determine the acute lethal toxicity of a substance on freshwater fish. Acute toxicity is the distinguishable adverse effect induced in an organism as a result of the exposure to a given substance for a short time period (days).
The deaths of the animals under study during the entire time of the assay were recorded as a toxicity parameter.
To that end, the fish that survived the treatment were sacrificed at 4 days post-treatment (previously anesthetized) and the samples (whole fish) were included in paraffin. The hematoxylin-eosin staining was subsequently performed in order to conduct the histopathological studies, obtaining a minimum of 6 longitudinal sections per animal, for the purpose of collecting different study areas of the same organ. The following organs were studied: brain, kidney, pancreas, intestine, eye, gills, ovary, testicle, muscle and liver.

COC(=O)C[C@H](NC(=O)[C@H](C)NC(=O)[C@@H](NC(=O)OCc1ccccc1)C(C)C)C(=O)CF [Z-VAD-fmk, reference compound] (Cbz-Val-Ala-Asp(OMe)-CH2F)
inhibition of apoptosis caused by camptothecin (positive inhibition control) [1]: specifically inhibited the apoptosis caused by camptothecin | inhibition of activation of caspase 3/7 (inhibition control) [2]: completely inhibited the activation of caspase 3/7

CCC(C)(C)C(=O)O[C@H]1C[C@@H](C)C=C2C=C[C@H](C)[C@H](CC[C@@H]3C[C@@H](O)CC(=O)O3)[C@H]21 [simvastatin, reference compound]
percentage of larvae with malformations or anomalous appearance ([3]; 0.2 mg/L): significant percentage of anomalies or toxicological problems | survival rate of embryos-larvae ([3]; high dose (2 mg/L, FIG. 24)): more toxic, since the reduction of the survival rate started earlier in time | reduction of the cardiac rhythm vs controls ([3]; increasing doses up to 2 mg/L, 72 hours post-treatment): statistically significant reduction with respect to the controls after the dose of 0.06 | survival rate of embryos-larvae vs controls ([3]; lower dose (FIG. 25: NST0037 0.2 mg/L)): caused a significant reduction of the survival rate | percentage of larvae with toxicological symptomatology (anomalous appearance) ([4]; 24 hours exposure): induced a larger percentage of larvae with toxicological symptomatology than compound NST0037 | Mortality (dead larvae/total) ([4]; Dose 10 mg/Kg): 0/30 | Mortality (dead larvae/total) ([4]; Dose 30 mg/Kg): 0/30 | Mortality (dead larvae/total) ([4]; Dose 100 mg/Kg): 0/30 | Mortality (dead larvae/total) ([4]; Dose 300 mg/Kg): 0/30 | Mortality (dead larvae/total) ([4]; Dose 1000 mg/Kg): 0/30 | percentage of healthy larvae ([4]; highest study dose (1000 mg/Kg), 24 hours): 53.3±8.8% | histopathology: ovary ([5]; 30 mg/kg): also presented histopathological damage in the ovary | histopathology: ovary ([5]; 100 mg/Kg): presented ovarian damage | Mortality (dead animals/total) ([5]; Dose 1 mg/kg): 0/7 | Mortality (dead animals/total) ([5]; Dose 3.2 mg/kg): 0/7 | Mortality (dead animals/total) ([5]; Dose 10 mg/kg): 0/7 | Mortality (dead animals/total) ([5]; Dose 32 mg/kg): 0/7 | Mortality (dead animals/total) ([5]; Dose 100 mg/kg): 6/7 | percentage of mortality ([5]; day 4 post-treatment (100 mg/kg group)): 86%
